Measured values taken from patent US7595395B2, “Gabaergic agents to treat memory deficits” (priority 2005, dated 2009).
Like-named read-outs stand apart in the source and are kept apart here.

Experiments:
C57B1/6 mice = assay: Spontaneous locomotive activity; format: in vivo; details: 30 mg/kg
Text: Further, animal data for FIGS. 22-26 were obtained using experimental methodologies described in a previously published reference, Influence of benzodiazepine binding site ligands on fear-conditioned contextual memory European journal of Pharmacology, Volume 426, Issues 1-2, 24 Aug. 2001, Pages 45-54, Timothy M. DeLorey, Richard C. Lin, Brian McBrady, Xiaohui He, James M. Cook, Jelveh Lameh and Gilda H. Loew, which is incorporated by reference as if fully set forth here in its entirety. Selected sections of the reference are provided below:
Male C57B1/6 mice were obtained from Charles Rivers Laboratories (Holister, Calif.) at 6 weeks of age. […] All animal protocols used in this study conform to the guidelines determined by the National Institute of Health (USA) Office for Protection from Research Risks and are approved by the Animal Care and Use Committee of the Palo Alto Veterans Administration Medical Center, Palo, Alto, Calif. […]
Mice were allowed to acclimate to the test room for 30 min prior to drug injection. […] Spontaneous locomotor activity was measured via seven sets of photoelectric sensors evenly spaced along the length of the monitoring chamber, 4 cm above the floor of the chamber (San Diego Instruments, San Diego, Calif.). Total activity was recorded in arbitrary units reflective of the number of times a mouse interrupts the photoelectric sensors during a 10-min monitoring session. […]

[1] = biological target: T1, α5β3γ2 benzodiazepine receptor GABA(A) isoform (UniProt P18507+P31644); assay: Radioligand competition binding, α5β3γ2 BzR/GABA(A) isoform; design: Ki α5; other: text; HEK-T cells (Roth et al.); species or system human and rat; details: read-out: Ki α5; HEK-T cells (Roth et al.)
T1 sequence (P18507 1-475): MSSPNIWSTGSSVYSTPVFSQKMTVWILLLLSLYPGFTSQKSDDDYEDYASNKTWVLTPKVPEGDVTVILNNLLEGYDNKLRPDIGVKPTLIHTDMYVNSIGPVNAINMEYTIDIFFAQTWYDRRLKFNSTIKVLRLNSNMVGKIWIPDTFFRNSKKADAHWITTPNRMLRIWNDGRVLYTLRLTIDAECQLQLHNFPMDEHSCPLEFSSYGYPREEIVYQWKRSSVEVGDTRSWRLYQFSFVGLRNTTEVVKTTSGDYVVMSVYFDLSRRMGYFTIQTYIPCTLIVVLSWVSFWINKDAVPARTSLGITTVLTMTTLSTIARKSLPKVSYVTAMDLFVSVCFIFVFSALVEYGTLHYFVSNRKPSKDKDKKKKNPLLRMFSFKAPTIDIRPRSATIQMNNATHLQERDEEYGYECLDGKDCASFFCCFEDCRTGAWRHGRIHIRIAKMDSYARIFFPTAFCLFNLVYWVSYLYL
T1 sequence (P31644 1-462): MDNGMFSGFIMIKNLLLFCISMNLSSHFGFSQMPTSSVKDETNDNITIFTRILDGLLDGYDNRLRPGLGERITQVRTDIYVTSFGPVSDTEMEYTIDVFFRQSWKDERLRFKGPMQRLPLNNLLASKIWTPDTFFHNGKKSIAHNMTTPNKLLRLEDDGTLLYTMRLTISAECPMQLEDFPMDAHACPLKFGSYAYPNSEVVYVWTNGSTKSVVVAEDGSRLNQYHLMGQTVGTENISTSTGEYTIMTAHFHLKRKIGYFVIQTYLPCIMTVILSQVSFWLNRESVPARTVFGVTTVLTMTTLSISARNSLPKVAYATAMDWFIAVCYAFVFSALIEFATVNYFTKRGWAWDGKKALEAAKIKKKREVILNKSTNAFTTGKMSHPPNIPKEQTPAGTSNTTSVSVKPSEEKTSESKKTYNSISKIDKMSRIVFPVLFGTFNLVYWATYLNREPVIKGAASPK

[2] = biological target: α4β3γ2 benzodiazepine receptor GABA(A) isoform (UniProt P18507+P48169); assay: Radioligand competition binding, α4β3γ2 BzR/GABA(A) isoform; design: species or system human and rat
Description: (§1) The affinity of all ligands at the 6 major recombinant GABAA/BzR subtypes was measured by competition for [^3H]Ro15-1788 binding to HEK-T cells expressing both human and rat GABAA/Bz receptors of composition α1β2γ2 (α1), α2β2γ2 (α2), α3β2γ2 (α3), α4β2γ2 (α4), α5β2γ2 (α5) and α6β2γ2 (α6). It is well known that the β2 and β3 subunits can be interchanged with no effect on Bz ligand affinity or efficacy. […] These studies are similar to those performed in the laboratory of Bryan Roth who has already expressed the receptors employing the work of Kucken et. al. and Gray et. al.
In brief, for membrane preparations, the cells were scraped on to the ice and diluted into 5 mL of phosphate buffered saline (pH=7.40) and cells pelleted by centrifugation for 5 min. at 4° C. The pellet was resuspended in 1 mL of 50 mM Tris-acetate buffer (pH 7.4) and centrifuged at 18,000 g for 20 min. […] Each pellet were diluted to 6 mL and then 100 μL of membranes were incubated with approximately 1 nM final concentration of [^3H]Ro 15-1788 in a total volume of 250 μL together with serial dilutions of test compound for 90 min. on ice. The membranes were harvested in polyethyleneimine-pretreated Whatman GF/C filters and after drying and addition of scintillation cocktail, counted in a scintillation counter. […]

[3] = tested on: αxβ3γ2 (α = 1-6) BzR/GABA(A) subtypes; assay: Binding across the BzR/GABA(A) subtypes (subtype selectivity in words); design: species or system human and rat
Description: The binding affinity of XLi093 (8) in vitro was determined on α1-6β3γ2 LTK cells and is illustrated in the Scheme as shown in FIG. 2
as §1
In brief, for membrane preparations, the cells were scraped on to the ice and diluted into 5 mL of phosphate buffered saline (pH=7.40) and cells pelleted by centrifugation for 5 min. at 4° C. The pellet was resuspended in 1 mL of 50 mM Tris-acetate buffer (pH 7.4) and centrifuged at 18,000 g for 20 min. […] The membranes were harvested in polyethyleneimine-pretreated Whatman GF/C filters and after drying and addition of scintillation cocktail, counted in a scintillation counter. […]

CCc1ccc2c(c1)C(=O)N(C)Cc1c(C(=O)OCCCOC(=O)c3ncn4c3CN(C)C(=O)c3cc(CC)ccc3-4)ncn1-2 [XLi356, 1,3-Bis(8-ethyl-5,6-dihydro-5-methyl-6-oxo-4H-imidazo[1,5a][1,4]benzodiazepine-3-carboxy)propyl diester]
locomotion (in words) (C57B1/6 mice): reduced
Ki [1]: 107 nM

CCOC(=O)c1ncn2c1CN=C(c1ccccc1)c1cc(-c3ccccc3)ccc1-2 [DM-I-81, Ethyl 8-phenyl-6-phenyl-4H-benzo[f]imidazo[1,5-a][1,4]diazepine-3-carboxylate]
Ki ([2]; Table I, means of two determinations, read-out: Ki α4): > 2000 nM
Ki ([2]; untitled table of lead compounds, unit inferred, read-out: α4): > 2000 nM
affinity at other BzR/GABA(A) subtypes than α5 (in words) [3]: binds only to α5β3γ2 subtypes
